Measured values as given in patent US10000452B1, “Quinolone-based compounds, formulations, and uses thereof” (University of South Florida, priority 2016, dated 2018).
Values after ≈ are worked out from the molar mass of the structure shown. Values joined by “and” are separate entries in the source; they are usually repeats but may differ in a detail not shown here. Equal values may be shown once. Read-outs that look alike come from different tables or passages of the source.

Key:
[1] = system: malarial strain W2 (pyrimethamine and chloroquine-resistant); test: in vitro antimalarial activity against multidrug resistant strain W2; assay type: cell-based, P. falciparum; conditions: Plasmodium falciparum
[2] = system: malarial strain TM90-C2B (mefloquine, chloroquine, atovaquone, and pyrimethamine-resistant); test: microbe, parasite or virus in culture; assay type: cell-based, P. falciparum; conditions: for EC50: Plasmodium falciparum, TM90, read-out: EC50 TM90-C2B (nM)
Source text: Ideally, the RI of a compound should lie between 0.3 and 3.0 in order to avoid rapidly inducing resistance in the parasite. […]

[3] = aqueous solubility (LC/MS- or HPLC-based assay); assay type: physicochemical
How it was run: (§1)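 Aqueous solubility and log D (pH 7.4) determined by LC/MS-based assays; solubility examined at more than one pH.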

Pb-infected mice = test: in vivo efficacy scouting assay against blood stages; design: species or system P. berghei; mice; conditions: for inhibition in vivo at 50 mg/kg: Plasmodium berghei, po, 144 h, read-out: % Inhibition Day 6 PI; for activities in these scout assays / % Inhibition Day 3 PI / % Inhibition Day 6 PI: single oral 50 mg/kg dose 1 day PI; for activities in these scout assays: result in words; for % Inhibition Day 3 PI / % Inhibition Day 6 PI: vs untreated animals
Description: The screening involved a single oral 50 mg/kg dose 1 day post infection (PI) and an assessment of parasitemia on days 3 PI and 6 PI (Table 6).
The screening was performed by treating two infected mice with a single 50 mg/kg oral dose of test compound suspended in PEG400 on day 1 postexposure (PE) followed by assessing parasitemia on days 3 and 6 PE.

P. berghei-GFP parasites = test: modified Thompson test; assay type: in vivo, P. berghei; mice; conditions: for day mice were sacrificed: Example 2: 10 mg/kg oral days 3, 4, 5, controls sacrificed day 13; for % inhibition on day 6 PE: Example 2: 10 mg/kg oral days 3, 4, 5 in HEC/Tween, Giemsa-stained smears; for No. of Cures: survival to day 30 PI with parasitemia <1%
Description: Mice were infected with 1×10^6 P. berghei-GFP parasites and compounds were dosed orally on days 3, 4 and 5 PI with a dose of 10 mg/kg of compound suspended or dissolved in HEC/Tween or PEG 400. Parasitemia was observed by flow cytometry on days 3, 6, 9, 13, 21, and 30 PI. Compounds with animal survival up to day 30 PI and parasitemia levels of less than 1% on day 30 PI were considered to be cures. Lastly, animals with more than 40% parasitemia levels were euthanized.
On days 3, 6, 9, 13, 21, and 30 PE, parasitemia was monitored by Giemsa-stained blood smears. Both compounds were evaluated by the reduction of parasitemia on day 6 PE and the survival up to day 30 PE.

[4] = target: P. berghei sporozoites expressing luciferase; conditions: previous work; read-out: liver stage activity; cited from earlier work
[5] = system: malarial strain TM90-C2B (mefloquine, chloroquine, atovaquone, and pyrimethamine-resistant); conditions: previous work; cited from earlier work
[6] = system: P. berghei sporozoites expressing luciferase; test: in vitro liver stage activity, luciferase sporozoites infecting HEPG2 hepatoma cells; assay type: cell-based; conditions: Plasmodium berghei
J774 mammalian cells = test: cytotoxicity to J774 cells; assay type: cell-based; conditions: Mus musculus, J774, read-out: EC50 J774 (μM)
Description: This allowed a simplified method for comparing the different assays being simultaneously run. Additionally, each compound was also tested for cytotoxicity using mammalian J774 cell lines in a 96-well plate format.^12-14, 16

[7] = lipophilicity log D at pH 7.4; assay type: physicochemical; conditions: octanol/water
How it was run: as §1

[8] = Example 2: two mice, single 50 mg/kg oral dose in PEG400 on day 1 PE
[9] = aqueous solution, pH 2, simulated gastric fluid, pH 2.0, read-out: Solubility pH 2.0
[10] = aqueous solution, pH 6.5, aqueous buffer, pH 6.5, read-out: Solubility pH 6.5
[11] = 10 mg/kg oral on days 3, 4 and 5 PI
[12] = aqueous solution (buffer not named), pH 2, simulated gastric fluid, pH 2.0, read-out: Solubility pH 2.0
[13] = aqueous solution (buffer not named), pH 6.5, aqueous buffer, pH 6.5, read-out: Solubility pH 6.5
[14] = 10 mg/kg oral on days 3, 4 and 5 PI, vs untreated control animals

| SMILES | EC50 ([1]; read-out: EC50 W2 (nM)) [nM] | EC50 [2] [nM] | EC50 (J774 mammalian cells) [µM] | chromatographic logD [7] | inhibition in vivo at 50 mg/kg (Pb-infected mice) [%] | activities in these scout assays (Pb-infected mice) | % Inhibition Day 3 PI (Pb-infected mice) | % Inhibition Day 6 PI (Pb-infected mice) | No. of Cures (P. berghei-GFP parasites; [11]) | EC50 ([6]; HEPG2 cells) [pM] | solubility [3, 12] [µM] | solubility [3, 13] [µM] | further results |
| --- | --- | --- | --- | --- | --- | --- | --- | --- | --- | --- | --- | --- | --- |
| CCCCc1cc2c(=O)c(Br)c(C)[nH]c2cc1OCCOc1ccccc1 [Compound 16c, 3-Bromo-6-butyl-2-methyl-7-(2-phenoxyethoxy)quinolin-4(1H)-one] | 2.6 | 12.2 | – | – | – | – | – | – | – | – | – | – | fold more soluble in comparison to 6b ([3]; Example 2): approximately 10; % inhibition on day 6 PE (Pb-infected mice; [8]): 49.5%; day mice were sacrificed (P. berghei-GFP parasites): 13; % inhibition on day 6 PE (P. berghei-GFP parasites): 61%; EC50 [4]: 2.12 nM; resistance index (RI) [5]: 4.69 |
| CCCCc1cc2c(=O)c(C(=O)OC)c[nH]c2cc1OCCOc1ccccc1 [Compound 6b, Methyl 6-Butyl-4-oxo-7-(2-phenoxyethoxy)-1,4-dihydroquinoline-3-carboxylate, reference compound] | – | 7.89 | – | – | – | – | – | – | – | – | – | – | EC50 ([1]; read-out: EC50 W2): 0.039 nM; EC50 ([6]; HepG2, text values printed in pM): 52 pM; % inhibition on day 3 PE (Pb-infected mice; [8]): 76.9%; % inhibition on day 6 PE (Pb-infected mice; [8]): 49%; day mice were sacrificed (P. berghei-GFP parasites): 13; % inhibition on day 6 PE (P. berghei-GFP parasites): no inhibition |
| COC(=O)c1c[nH]c2cc(CN3CCN(c4ccc(C(F)(F)F)cc4)CC3)c(C)cc2c1=O [Compound 8v, Methyl 6-methyl-4-oxo-7-((4-(4-(trifluoromethyl)phenyl)piperazin-1-yl)methyl)-1,4-dihydroquinoline-3-carboxylate] | 0.066 | 101 | > 20 | 3.73 | > 85 | excellent activities | full inhibition | completely inhibited parasite growth | 3 of the 5 and 3/5 | – | – | – | EC50 ([1]; read-out: EC50 W2): 0.066 nM; RI ([2]; RI = EC50 TM90-C2B/EC50 W2): 1530; solubility [3, 9]: ≥ 80 µM; solubility [3, 10]: 1 to 19.9 µM (≈ 0.459 to 9.14 µg/mL) |
| O=c1c(Br)c[nH]c2cc(CN3CCN(c4ccc(F)cc4)CC3)ccc12 [Compound 8ak, 3-Bromo-7-((4-(4-fluorophenyl)piperazin-1-yl)methyl) quinolin-4(1H)-one] | 812 | 2430 | > 20 | 2.91 | – | – | – | – | 0/5 | 858 | ≥ 80 | 20 to 39.9 (≈ 8.33 to 16.6 µg/mL) | % Inhibition Day 6 PI (P. berghei-GFP parasites; [14]): low inhibition |
| Cc1[nH]c2cc(CN3CCN(c4ccc(F)cc4)CC3)ccc2c(=O)c1Cl [Compound 8ao, 3-Chloro-7-((4-(4-fluorophenyl)piperazin-1-yl)methyl)-2-methylquinolin-4(1H)-one] | 38.5 | 52.1 | > 20 | 2.73 | – | – | – | – | 0/5 | – | ≥ 80 | 1 to 19.9 (≈ 0.386 to 7.68 µg/mL) | % Inhibition Day 6 PI (P. berghei-GFP parasites; [14]): low inhibition |
| COC(=O)c1c[nH]c2cc(CN3CCN(c4ccc(C(F)(F)F)cc4)CC3)c(OC)cc2c1=O [Compound 8ab, Methyl 6-methoxy-4-oxo-7-((4-(4-(trifluoromethyl)phenyl)piperazin-1-yl)methyl)-1,4-dihydroquinoline-3-carboxylate] | 6.42 | – | > 20 | 1.29 | > 85 | excellent activities | full inhibition | completely inhibited parasite growth | 3 of the 5 and 3/5 | 9580 | – | – | solubility [3, 9]: 1 to 19.9 µM (≈ 0.475 to 9.46 µg/mL); solubility [3, 10]: 1 to 19.9 µM (≈ 0.475 to 9.46 µg/mL) |
| Cc1[nH]c2cc(CN3CCN(c4ccc(F)cc4)CC3)ccc2c(=O)c1Br [Compound 8an, 3-Bromo-7-((4-(4-fluorophenyl)piperazin-1-yl)methyl)-2-methylquinolin-4(1H)-one] | 25.1 | 25.5 | > 20 | 2.83 | > 85 | excellent activities | full inhibition | completely inhibited parasite growth | 0/5 | 26200 | ≥ 80 | 1 to 19.9 (≈ 0.43 to 8.56 µg/mL) | Avg. Day of Death (P. berghei-GFP parasites; [11]): 13; inhibition in vivo at 10 mg/kg (P. berghei-GFP parasites; Plasmodium berghei, in Mus musculus, 144 h, 10 mg/kg oral on days 3, 4 and 5 PI, vs untreated control animals, read-out: % Inhibition Day 6 PI): 90.9% |
